The values below come from patent publication US20050143450A1, “Alkyl PCDF as a treatment for prostate cancer” (priority 2002, published 2005).

Each structure is given as a SMILES string.

Assay [1] deals with ethoxyresorufin O-deethylase (EROD) activity in 22Rv1 cells. Kind of assay: Induction of EROD activity in 22Rv1 cells. The format is cell-based. Particulars: 24-hr treatment. As for the experimental part: An androgen responsive prostate cancer cell line 22Rv1 and an androgen nonresponsive prostate cancer cell line PC3 were treated with TCDD and ethoxyresorufin O-deethylase (EROD) activity was measured.

Assay [2] deals with androgen-responsive probasin gene promoter (pPB). The format is cell-based, human. To be noted: ZR-75 cells, pPB alone. How it is done: ZR-75 human breast cancer and LNCaP human prostate cancer cells were obtained from American Type Culture Collection (Manassas, Va.) and were maintained in RPMI 1640 medium supplemented with 10% FBS, 1% antibiotic/antimycotic solution, 1.5 g/L sodium bicarbonate, and 10 mM HEPES, final pH of 7.4. Cells were seeded at 2.75×10^5 per 22-mm well in DME-F12 without phenol red, supplemented with 2.5% charcoal-stripped fetal bovine serum (FBS). After 24 h, cells were transfected using Lipofectamine and Plus reagents (Invitrogen) according to manufacturer's instructions. LNCaP and ZR-75 cells were transfected with 500 ng/well of either reporter plasmid, and 250 ng/well of pcDNA3.1-β-gal (Invitrogen) as the internal control. In addition, ZR-75 cells were transfected with 500 ng hAR. Twenty-four hours after treatment, cells were harvested by scraping with 200 μL/well of reporter lysis buffer. Lysates were centrifuged at 40,000 g and luciferase and β-galactosidase activity was assayed with 30 μL of the supernatant extract per sample using a Lumicount luminometer (PerkinElmer, Boston, Mass.). Luciferase activity was normalized to β-galactosidase activity for each transfection well.

Assay [3] addresses T1, AhR (Homo sapiens, UniProt P35869).
T1 construct: LNCaP cells were transfected with pDRE3, treated with various compounds and luciferase activity was determined; endogenous in cells; host or cells: LNCaP
T1 sequence (P35869 11-848): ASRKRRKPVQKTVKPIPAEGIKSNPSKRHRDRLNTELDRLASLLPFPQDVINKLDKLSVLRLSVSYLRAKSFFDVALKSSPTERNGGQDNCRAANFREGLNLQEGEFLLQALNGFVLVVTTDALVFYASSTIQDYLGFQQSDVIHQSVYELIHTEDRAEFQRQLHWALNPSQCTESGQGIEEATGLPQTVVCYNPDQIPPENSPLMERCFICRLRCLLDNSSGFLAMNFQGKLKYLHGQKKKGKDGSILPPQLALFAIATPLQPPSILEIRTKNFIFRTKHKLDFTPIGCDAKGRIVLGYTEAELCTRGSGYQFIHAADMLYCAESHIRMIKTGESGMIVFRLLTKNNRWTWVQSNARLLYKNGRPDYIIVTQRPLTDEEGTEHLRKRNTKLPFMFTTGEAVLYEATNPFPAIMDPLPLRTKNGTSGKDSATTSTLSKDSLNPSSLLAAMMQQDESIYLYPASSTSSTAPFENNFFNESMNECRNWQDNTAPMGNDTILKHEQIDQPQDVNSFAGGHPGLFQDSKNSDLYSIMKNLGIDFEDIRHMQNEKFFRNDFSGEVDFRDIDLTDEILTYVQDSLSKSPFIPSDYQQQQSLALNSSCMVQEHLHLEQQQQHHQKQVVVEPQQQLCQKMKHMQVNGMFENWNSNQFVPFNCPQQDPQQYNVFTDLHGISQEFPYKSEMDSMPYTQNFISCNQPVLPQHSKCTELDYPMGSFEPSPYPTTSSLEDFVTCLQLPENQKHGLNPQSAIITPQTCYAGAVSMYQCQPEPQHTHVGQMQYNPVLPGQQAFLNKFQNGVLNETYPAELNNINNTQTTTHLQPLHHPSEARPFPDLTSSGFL
As to the kind of experiment: AhR activation, pDRE3 luciferase transient transfection in LNCaP cells. The class given is cell-based. As for the experimental part: (§1) After 24 h, cells were transfected using Lipofectamine and Plus reagents (Invitrogen) according to manufacturer's instructions. LNCaP and ZR-75 cells were transfected with 500 ng/well of either reporter plasmid, and 250 ng/well of pcDNA3.1-β-gal (Invitrogen) as the internal control. In addition, ZR-75 cells were transfected with 500 ng hAR. Twenty-four hours after treatment, cells were harvested by scraping with 200 μL/well of reporter lysis buffer. Lysates were centrifuged at 40,000 g and luciferase and β-galactosidase activity was assayed with 30 μL of the supernatant extract per sample using a Lumicount luminometer (PerkinElmer, Boston, Mass.). Luciferase activity was normalized to β-galactosidase activity for each transfection well.
LNCaP cells were transfected with pDRE3, treated with various compounds and luciferase activity was determined as described in the above Examples.

In assay [4] the target is T2, hAR (Homo sapiens, UniProt P10275).
T2 construct: expressed in transfected cells; host or cells: ZR-75
T2 sequence (P10275 1-920): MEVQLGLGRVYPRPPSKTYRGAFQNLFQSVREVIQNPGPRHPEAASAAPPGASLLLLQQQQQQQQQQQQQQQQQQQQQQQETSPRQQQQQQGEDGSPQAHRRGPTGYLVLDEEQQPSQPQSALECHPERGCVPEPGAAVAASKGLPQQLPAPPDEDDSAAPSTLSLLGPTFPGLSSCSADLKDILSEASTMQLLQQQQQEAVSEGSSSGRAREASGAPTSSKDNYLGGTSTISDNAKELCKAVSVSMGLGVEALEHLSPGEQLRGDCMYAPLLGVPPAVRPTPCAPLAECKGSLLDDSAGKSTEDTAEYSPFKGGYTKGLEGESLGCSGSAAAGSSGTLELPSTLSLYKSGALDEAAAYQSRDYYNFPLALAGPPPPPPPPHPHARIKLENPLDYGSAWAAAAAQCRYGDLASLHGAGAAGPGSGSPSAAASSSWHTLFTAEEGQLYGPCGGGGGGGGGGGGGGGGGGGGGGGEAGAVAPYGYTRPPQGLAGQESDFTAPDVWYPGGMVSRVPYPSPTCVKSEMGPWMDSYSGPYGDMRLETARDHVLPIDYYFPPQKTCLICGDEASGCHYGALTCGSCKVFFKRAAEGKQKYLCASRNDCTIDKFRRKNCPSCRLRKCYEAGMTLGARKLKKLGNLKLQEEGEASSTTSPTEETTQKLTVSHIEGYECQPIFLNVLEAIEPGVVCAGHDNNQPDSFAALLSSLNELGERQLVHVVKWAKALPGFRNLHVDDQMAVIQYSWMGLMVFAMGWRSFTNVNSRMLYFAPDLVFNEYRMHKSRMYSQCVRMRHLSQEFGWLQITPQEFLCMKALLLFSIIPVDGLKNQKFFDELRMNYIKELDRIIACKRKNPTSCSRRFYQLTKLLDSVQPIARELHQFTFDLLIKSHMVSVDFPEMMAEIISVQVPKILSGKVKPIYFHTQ
As to the kind of experiment: Hormone-induced transactivation in ZR-75 cells cotransfected with pPB and hAR. The class given is cell-based. To be noted: cotreated with hormone plus TCDD. How it is done:
as §1

Consider `Clc1cc2c(cc1Cl)Oc1cc(Cl)c(Cl)cc1O2` [TCDD, 2,3,7,8-tetrachloro-p-dioxin], for which the EROD activity induction result in assay [1] is “induced EROD activity”. In addition, the reporter gene activity entry in assay [2] is “did not activate”. Moreover, the “luciferase activity induction compared to solvent control (DMSO)” value in assay [3] (pDRE3, 10 nM) is recorded as more than 9 fold. Further, in assay [4], the “effect on DHT-induced activity” value is “not” and the “effect on E2-induced activity” value is “inhibited”.
For the molecule `Cc1cc(Cl)cc2c1oc1cc(Cl)cc(Cl)c12` [6-MCDF, 6-methyl-1,3,8-trichlorodibenzofuran], the reporter gene activity entry in assay [2] is recorded as “did not activate”. The same molecule registered a luciferase activity induction in assay [3] (pDRE3, 2 μM) of more than 7 fold.
